Melting point data for 123 molecules are collected here from a melting point compilation (Tetko et al.).

`O=C(Nc1ccc(Cl)cn1)OCC(F)(F)F`: the melting point fell in the range of 158 to 160 °C. The figure for `CC(C)c1nnnn1CC(=O)O` is 179 to 181 °C; for `O=C(O)CCc1ccc(Br)cc1F` it is 97 to 99 °C; for `Cc1nn(Cc2ccccc2)c(C)c1C=NO` it is 135 to 137 °C.

With `CNS(=O)(=O)c1ccc(CN)cc1`, the melting point was in the range of 111 to 113 °C.

On to `Fc1ccc(-c2nc(CCl)no2)cc1`, for which the melting point was 51 to 55 °C.

`Cc1ccc(N)cc1N1CCOC1=O`: the melting point lay in the range of 130 to 132 °C.

The molecule `CC(Cl)C(=O)Nc1cccc(CSc2ccccn2)c1` (stereo not drawn) gave a melting point of 97 to 99 °C. The figure for `COC(=O)c1cc(OC)c(OC(F)F)cc1[N+](=O)[O-]` is 96 to 98 °C; for `Nc1cc(Cl)cc(C(=O)O)c1F` it is 196 to 198 °C. `CS(=O)(=O)N1CCCC(Cl)C1` (stereo not drawn) showed a melting point of 54 to 56 °C. The figure for `Cc1ccc(C(=O)CCl)s1` is 45 to 47 °C. The molecule `O=C(O)CC1=NN(c2ccc(Cl)nn2)C(=O)C1` returned a melting point of 183 to 185 °C.

With `N#Cc1cnc(C(=O)O)c(Cl)c1`, the melting point fell in the range of 149 to 151 °C.

Take `O=C(O)c1nnn(-c2cccc(F)c2)c1C(F)(F)F`: the melting point lay in the range of 130 to 132 °C. For the molecule `CC(Cl)C(=O)Nc1cccc2ccccc12` (stereo not drawn), the melting point is 146 to 148 °C. The figure for `COc1ccc(NC(N)=S)cc1` is 208 to 210 °C. The figure for `C#Cc1cnc2ccccc2n1` is 99 to 101 °C; for `N#Cc1cc2c([nH]c1=O)CCCCC2` it is 253 to 255 °C; for `O=C(CCl)N1c2ccccc2SCC1c1ccccc1` (stereo not drawn) it is 162 to 164 °C. The figure for `CCc1ccc(-c2noc(S)n2)cc1` is 159 to 161 °C; for `c1ccc(OCCc2nc3ccccc3[nH]2)cc1` it is 136 to 138 °C. For `NC(=S)CCN1CCOC1=O`, the melting point lay within 140 to 142 °C. The figure for `Nc1ncc(Cc2cccc(C(F)(F)F)c2)s1` is 73 to 77 °C. The figure for `CC(=O)NCc1ccc(C(=O)CCl)s1` is 143 to 145 °C; for `Cc1ccc(-n2nc(C(=O)O)c3c2CCCC3)cc1F` it is 208 to 210 °C. The molecule `C#CCN1C(=O)COc2ccc(Br)cc21` came in with a melting point of 111 to 113 °C. The figure for `CC(=O)N(c1nc(C=O)cs1)C1CC1` is 112 to 114 °C; for `Nc1cccc(-c2ccc3c(c2)CCO3)n1` it is 123 to 125 °C. `CC(=O)c1ccc(-c2ccc(C(F)(F)F)cc2)s1` came in with a melting point of 127 to 129 °C. With `CC(C)NC(=O)OCC(F)(F)F`, the melting point is 48 to 50 °C.

For `CN(C)c1ccc(CCC(=O)O)cc1`, the melting point was in the range of 105 to 107 °C. Consider `O=c1cc(CCl)nc2ccc(Br)cn12`, for which the melting point was 172 to 174 °C. The figure for `COc1ccc(C2CCCCC(O)C2)cc1` (stereo not drawn) is 49 to 51 °C; for `O=C(O)CCCNc1nc2ccccc2s1` it is 110 to 112 °C.

The molecule `CCc1cccc(OCC(=O)O)c1` gave a melting point of 66 to 70 °C. The figure for `Cc1nnc(S)n1N` is 186 to 188 °C; for `Cc1ccc(S(=O)(=O)N(C)C)cc1NC(=S)NN` it is 191 to 193 °C. On to `NCc1cccc(NS(=O)(=O)c2ccc(Cl)cc2)c1`, for which the melting point lay within 186 to 188 °C. `CC(=O)N1c2ccc(S(=O)(=O)Cl)cc2CC1C` (stereo not drawn) registered a melting point of 112 to 114 °C. `Cc1ccc(S(=O)(=O)OC(c2nc(C)cs2)C(F)(F)F)cc1` (stereo not drawn): the melting point was in the range of 105 to 107 °C.

With `O=C(O)c1sc(-c2ccccc2)cc1OCC(=O)N1CCCCC1`, the melting point is 164 to 166 °C. The figure for `COc1ccccc1NCCC(=O)O` is 84 to 86 °C. In turn, `Cc1ccc(O)c(C(=O)NCC(C)C)c1` came in with a melting point of 51 to 53 °C. The figure for `COc1ccc(-c2ccc(CCC(=O)O)o2)cc1` is 142 to 144 °C.

Turning to `Nc1nc2c(s1)CCc1ccccc1-2`, the melting point is 58 to 66 °C. As for `O=C(O)CCn1ccc2cc(Cl)ccc21`, the melting point lay in the range of 59 to 61 °C. The figure for `CC(C)(C)OC(=O)N1CC2NCCOC2C1` (stereo not drawn) is 54 to 56 °C; for `Sc1ncccc1Cl` it is 204 to 206 °C; for `Nc1ncc(C(F)(F)F)cc1Cl` it is 86 to 90 °C. The figure for `COc1ccc(C2(C(=O)O)CCCC2)cc1OC` is 140 to 142 °C; for `CC(=O)c1ccc(N2CCCC2=O)cc1` it is 127 to 131 °C; for `CC(C)(C)OC(=O)N1CCN(c2nc(N)ns2)CC1` it is 196 to 198 °C. On to `O=c1[nH]c(-c2cccs2)no1`, for which the melting point fell in the range of 183 to 185 °C.

`CCCc1[nH]c2ccccc2c1CC` yielded a melting point of 43 to 45 °C. The figure for `O=C(O)c1cc(Cl)cc(Cl)c1OC(F)F` is 128 to 132 °C. For the molecule `CCOc1ccc(C(C)=O)cc1CCl`, the melting point lay in the range of 80 to 82 °C. As to `CC1(C)NC(=O)N(CCOc2ccc(N)cc2)C1=O`, the melting point lay within 147 to 149 °C. Regarding `Nc1cc(S(N)(=O)=O)ccc1O`, the melting point was in the range of 199 to 201 °C. The figure for `COC(=O)Cc1ccccc1O` is 69 to 71 °C. The molecule `Cc1ccc([N+](=O)[O-])c(C)c1S(=O)(=O)Cl` registered a melting point of 62 to 64 °C.

As to `O=C(O)c1c[nH]c2cccc([N+](=O)[O-])c12`, the melting point was 170 to 172 °C. Turning to `O=C1CN(c2ccccc2)CCCN1`, the melting point was 191 to 193 °C. The figure for `CC1=C(C(=O)O)Cc2ccccc2O1` is 234 to 236 °C; for `O=C(O)c1ccccc1NS(=O)(=O)C(F)(F)F` it is 164 to 166 °C; for `NCc1cccnc1O` it is 89 to 91 °C. `O=C(CCl)NC1CCCCCCC1` gave a melting point of 82 to 84 °C. The figure for `NS(=O)(=O)c1ccc([N+](=O)[O-])nc1` is 174 to 176 °C; for `COc1ccc(S(=O)(=O)N2CCOCC2)cc1NC(=O)CCl` it is 180 to 182 °C; for `CC(=O)N1CCN(CC(N)=NO)CC1` it is 199 to 201 °C.

As to `CCN(CC)Cc1csc(N)n1`, the melting point fell in the range of 64 to 66 °C.

`Cc1sc2ncnc(NCC(=O)O)c2c1C` yielded a melting point of 244 to 246 °C. The figure for `CCN(CC)S(=O)(=O)c1ccc(O)c(C(=O)O)c1` is 129 to 131 °C; for `N#Cc1c(F)cccc1-n1ccc(N)n1` it is 134 to 136 °C.

Regarding `Sc1nnc(NCC2CCCO2)s1` (stereo not drawn), the melting point was in the range of 123 to 125 °C. Take `Nc1ccc(SCCCO)cc1`: the melting point lay within 62 to 64 °C. Molecule `Nc1nc2c(cc1C(=O)O)CCCC2` came in with a melting point of 285 to 287 °C. The figure for `CC(C)=CCOc1cccc(C(=O)O)c1` is 86 to 88 °C. The figure for `Nc1cnc(C2CC2)nc1` is 169 to 171 °C; for `NC(=O)c1cc(N)c(F)cc1F` it is 169 to 171 °C. The figure for `O=C(Cc1ccccc1Cl)c1ccccc1` is 68 to 70 °C. Regarding `Cc1n[nH]c(C2CCCCC2)n1`, the melting point lay in the range of 127 to 129 °C. `COc1cc(C)c(C(C)=O)cc1C` yielded a melting point of 74 to 76 °C.

Take `Cc1sc2nc(C)n(N)c(=O)c2c1C`: the melting point was 204 to 206 °C. On to `Sc1nc(-c2ccccc2)c(-c2ccccc2)n1Cc1ccccc1`, for which the melting point was in the range of 280 to 282 °C. The figure for `CSc1nc(C)cc(C(=O)O)n1` is 152 to 154 °C. Consider `Nc1cc(Cl)n[nH]1`, for which the melting point lay within 93 to 95 °C. The figure for `O=C(O)c1c(O)cnc2ccccc12` is 199 to 201 °C. `COC(=O)c1cc(S(=O)(=O)Cl)c(Br)cc1Cl` displayed a melting point of 135 to 137 °C. The figure for `Cn1c(S)nc2ccsc2c1=O` is 313 to 315 °C. The figure for `COc1ccc(C(=O)O)c(I)c1` is 182 to 184 °C; for `O=C(O)C1CCCN1S(=O)(=O)c1ccccc1` (stereo not drawn) it is 79 to 81 °C; for `Cc1cc(Br)ccc1NS(C)(=O)=O` it is 144 to 146 °C. The figure for `COCc1nc(CC(=O)O)cs1` is 59 to 61 °C; for `Nc1[nH]ncc1[N+](=O)[O-]` it is 237 to 239 °C; for `O=C1C(=O)N(Cc2ccccc2)c2ccccc21` it is 92 to 94 °C. Regarding `C#CCNC(=O)c1cccnc1Cl`, the melting point was in the range of 107 to 109 °C. The figure for `COc1ccc(C(=O)O)cc1-c1ccccn1` is 226 to 228 °C; for `O=C1NCCN1CCN1CCNCC1` it is 139 to 141 °C. Molecule `CC(C)C(Br)C(=O)NCC1CCCO1` (stereo not drawn) came in with a melting point of 53 to 55 °C.

For `O=C(O)CCCc1ccc2c(c1)CC(=O)N2`, the melting point lay in the range of 180 to 182 °C.

In the case of `CN1CCN(C(N)=O)C(c2ccccc2)C1` (stereo not drawn), the melting point lay within 94 to 96 °C. The figure for `O=C(CO)NCc1ccccc1` is 101 to 103 °C; for `CC(C)CNC(=O)C(C)Nc1cccc(Br)c1` (stereo not drawn) it is 92 to 94 °C. The figure for `CCc1cc2c(n1Cc1ccccc1)CCCC2=O` is 59 to 61 °C; for `Cc1ccc(S(=O)(=O)N2CCCC2C(=O)O)cc1` (stereo not drawn) it is 96 to 98 °C. The figure for `O=[N+]([O-])c1cc(S(=O)(=O)Cl)ccc1Br` is 53 to 55 °C; for `CC(C)(C)OC(=O)NCC1CC2CCCC(C1)N2` (stereo not drawn) it is 219 to 221 °C; for `CS(=O)(=O)Nc1ccc(CCl)cc1` it is 107 to 109 °C. Regarding `c1ccc(NCC2CCCCC2)nc1`, the melting point was 91 to 93 °C. As to `N#Cc1cccc(OCc2cccc(C(=O)O)c2)c1`, the melting point was 179 to 181 °C. The figure for `CC(=O)Nc1cccs1` is 146 to 148 °C; for `Nc1ccc(-n2cncn2)c(F)c1` it is 126 to 128 °C; for `CNS(=O)(=O)c1ccc(Cl)c(C(F)(F)F)c1` it is 100 to 102 °C. The figure for `CC(C(=O)O)c1ccc(Cl)c(Cl)c1` (stereo not drawn) is 39 to 41 °C; for `O=C(O)CCNS(=O)(=O)c1ccc(Cl)cc1` it is 155 to 159 °C. The figure for `O=C(O)c1ccc(-c2ccco2)o1` is 147 to 149 °C.

In the case of `FC(F)Oc1cccc(-c2ccc(Cl)nn2)c1`, the melting point lay in the range of 86 to 88 °C. The figure for `Cn1ncc2c(N)ncnc21` is 264 to 266 °C. As to `CC1(c2cccc(C#N)c2)NC(=O)NC1=O` (stereo not drawn), the melting point lay in the range of 202 to 204 °C. Take `O=S(=O)(Nc1ccccc1Br)N1CCOCC1`: the melting point lay in the range of 81 to 83 °C. Consider `O=C(O)c1ccccc1OCc1ccc(F)cc1`, for which the melting point was 80 to 84 °C. `CC(C)c1cc(C(=O)O)on1` yielded a melting point of 74 to 76 °C.
